From ChEMBL document CHEMBL4052696, “Varic acid analogues from fungus as PTP1B inhibitors: Biological evaluation and structure-activity relationships” (Bioorg Med Chem Lett, 2017)
Calls of active or inactive are those of the source.

Experiments:
[1] = tested on: Rattus norvegicus; test: Increase in insulin-induced glucose lowering effect in type 2 diabetic Wistar rat at 10 mg/kg, ip dosed 30 mins before insulin injection and measured 30 mins post insulin injection by glucose-oxidase assay; format: functional, organism-based
[2] = tested on: Rattus norvegicus; test: Increase in insulin-induced glucose lowering effect in normal Wistar rat at 10 mg/kg, ip dosed 30 mins before insulin injection and measured 30 mins post insulin injection by glucose-oxidase assay; format: functional, organism-based
[3] = biological target: T1, Tyrosine-protein phosphatase non-receptor type 1 (Homo sapiens) (UniProt P18031); test: Reversible inhibition of PTP1B (unknown origin) at 0.1 to 0.4 uM using p-nitrophenyl phosphate substrate incubated for 30 mins by Lineweaver-Burk double reciprocal plot
T1 sequence (whole entry): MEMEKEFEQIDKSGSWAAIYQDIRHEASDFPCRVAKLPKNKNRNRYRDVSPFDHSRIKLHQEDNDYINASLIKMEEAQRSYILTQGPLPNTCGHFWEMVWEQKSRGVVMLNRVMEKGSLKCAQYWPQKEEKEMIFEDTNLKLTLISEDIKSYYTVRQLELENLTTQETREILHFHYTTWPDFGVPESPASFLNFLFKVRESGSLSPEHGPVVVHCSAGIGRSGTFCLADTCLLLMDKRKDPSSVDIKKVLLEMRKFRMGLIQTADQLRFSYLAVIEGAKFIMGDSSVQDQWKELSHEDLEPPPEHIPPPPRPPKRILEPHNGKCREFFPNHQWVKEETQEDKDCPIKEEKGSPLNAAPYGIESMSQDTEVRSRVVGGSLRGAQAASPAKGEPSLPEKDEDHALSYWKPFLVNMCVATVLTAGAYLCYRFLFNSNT

CCCc1cc(OC(=O)c2c(O)cc(OC(=O)c3c(O)cc(O)cc3CCC)cc2CCC)cc(O)c1C(=O)O
active: Activity [1] | Activity [2] | inhibition [3]
